Experimental data as given in PubChem BioAssay AID192 (DTP/NCI, 2004).
“And” between values parts separate entries of the source, which are not always exact repeats. Equal values may be shown once. Inconclusive results and toxic doses are left out. Rule for the calls: active = survival T/C of 150% or more; inactive = T/C below 125% in these data.

System: BDF1 mice, B16 melanoma ip, median survival T/C
Assay: NCI In Vivo Anticancer Drug Screen. Data for tumor model B16 Melanoma (intraperitoneal) in B6D2F1 (BDF1) mice
Settings: endpoint: median survival time, higher = longer survival
Outline: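 Mice with transplantable tumors; drug vs vehicle groups; endpoint survival or tumor size; value = T/C.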

[1] = dose: 6.25 mg/kg/injection, schedule: Q01DX009 (ip), vehicle: saline
[2] = dose: 12.5 mg/kg/injection, schedule: Q01DX009 (ip), vehicle: saline
[3] = dose: 12.5 mg/kg/injection, schedule: Q04DX003 (ip), vehicle: saline
[4] = dose: 25.0 mg/kg/injection, schedule: Q01DX009 (ip), vehicle: saline
[5] = dose: 25.0 mg/kg/injection, schedule: Q04DX003 (ip), vehicle: saline
[6] = dose: 50.0 mg/kg/injection, schedule: Q04DX003 (ip), vehicle: saline
[7] = dose: 50.0 mg/kg/injection, schedule: Q01DX009 (ip), vehicle: saline
[8] = dose: 100.0 mg/kg/injection, schedule: Q01DX009 (ip), vehicle: saline
[9] = dose: 200.0 mg/kg/injection, schedule: Q01DX009 (ip), vehicle: saline
[10] = dose: 50.0 mg/kg/injection, schedule: Q01DX009 (ip), vehicle: saline with Tween-80
[11] = dose: 100.0 mg/kg/injection, schedule: Q01DX009 (ip), vehicle: saline with Tween-80
[12] = dose: 200.0 mg/kg/injection, schedule: Q01DX009 (ip), vehicle: saline with Tween-80
[13] = dose: 50.0 mg/kg/injection, schedule: Q01DX009 (ip), vehicle: Klucel (hydroxypropylcellulose) (HPC)
[14] = dose: 100.0 mg/kg/injection, schedule: Q01DX009 (ip), vehicle: Klucel (hydroxypropylcellulose) (HPC)
[15] = dose: 200.0 mg/kg/injection, schedule: Q01DX009 (ip), vehicle: Klucel (hydroxypropylcellulose) (HPC)
[16] = dose: 400.0 mg/kg/injection, schedule: Q01DX009 (ip), vehicle: saline with Tween-80
[17] = dose: 100.0 mg/kg/injection, schedule: Q04DX003 (ip), vehicle: Klucel (hydroxypropylcellulose) (HPC)
[18] = dose: 200.0 mg/kg/injection, schedule: Q04DX003 (ip), vehicle: Klucel (hydroxypropylcellulose) (HPC)
[19] = dose: 400.0 mg/kg/injection, schedule: Q04DX003 (ip), vehicle: Klucel (hydroxypropylcellulose) (HPC)
[20] = dose: 400.0 mg/kg/injection, schedule: Q01DX009 (ip), vehicle: Klucel (hydroxypropylcellulose) (HPC)
[21] = dose: 6.25 mg/kg/injection, schedule: Q01DX009 (ip), vehicle: water
[22] = dose: 12.5 mg/kg/injection, schedule: Q01DX009 (ip), vehicle: water
[23] = dose: 25.0 mg/kg/injection, schedule: Q01DX009 (ip), vehicle: water
[24] = dose: 6.25 mg/kg/injection, schedule: Q01DX009 (ip), vehicle: Klucel (hydroxypropylcellulose) (HPC)
[25] = dose: 12.5 mg/kg/injection, schedule: Q01DX009 (ip), vehicle: Klucel (hydroxypropylcellulose) (HPC)
[26] = dose: 25.0 mg/kg/injection, schedule: Q01DX009 (ip), vehicle: Klucel (hydroxypropylcellulose) (HPC)

Measured: T/C

Cc1ccc(S(=O)(=O)OC2CCN(C)CC2)cc1
inactive: dose: 3.0 mg/kg/injection, schedule: Q04DX003 (ip), vehicle: Klucel (hydroxypropylcellulose) (HPC) 90 % of control | dose: 6.0 mg/kg/injection, schedule: Q04DX003 (ip), vehicle: Klucel (hydroxypropylcellulose) (HPC) 86 % of control | [1] 100 % of control | dose: 6.25 mg/kg/injection, schedule: Q04DX003 (ip), vehicle: saline 94 % of control | [2] 100 % of control | [3] 97 % of control | [4] 100 % of control | [5] 94 % of control

COc1cc(C(=O)Nc2ccc(N(C)C)cc2)cc(OC)c1OC
inactive: [3] 119 % of control | [6] 116 % of control | dose: 200.0 mg/kg/injection, schedule: Q04DX003 (ip), vehicle: saline 108 % of control

CC(C)NNC(=O)C(N)CO (stereo not given)
inactive: [4] 104 % of control | [7] 116 % of control | [8] 104 % of control | [9] 111 % of control

O=C(O)CCN1C(=O)c2ccccc2C1=O
inactive: [10] 102 % of control | [11] 95 % of control | [12] 90 % of control

COc1cc(C(=O)NCCS(=O)(=O)O)cc(OC)c1OC
inactive: [8] 97 % of control | [9] 111 % of control | dose: 400.0 mg/kg/injection, schedule: Q01DX009 (ip), vehicle: saline 103 % of control

Nn1c(=O)[nH][nH]c1=O
inactive: [13] 92 % of control | [14] 110 % of control | [11] 115 % of control | [15] 89 % of control | [12] 105 % of control | [16] 105 % of control

O=C1C(N2CC2)=C(N2CC2)C(=O)C(N2CC2)=C1N1CC1
inactive: dose: 10.0 micrograms/kg/injection, schedule: Q01DX009 (ip), vehicle: saline 100 % of control and 118 % of control | dose: 20.0 micrograms/kg/injection, schedule: Q01DX009 (ip), vehicle: saline 120 % of control

C/C(=C\c1ccccc1)C(=O)c1ccc(-c2ccccc2)cc1
inactive: [17] 103 % of control | [18] 95 % of control | [19] 106 % of control

NC1=NC(=O)NC1(c1ccccc1)c1ccccc1
inactive: [10] 98 % of control | [11] 109 % of control | [12] 97 % of control | [16] 93 % of control

CCN(CC)CCNCCN
inactive: [2] 94 % of control | [4] 97 % of control | [7] 94 % of control

CC(=O)N(C(C)=O)C1=C(c2ccccc2)C(=O)c2ccccc21
inactive: [14] 100 % of control | [15] 97 % of control | [20] 97 % of control

O=C1c2ccccc2S(=O)(=O)c2ccc(Br)cc21
inactive: [14] 93 % of control | [15] 90 % of control | [20] 93 % of control

C=CCOCC(O)CN(C)C1CCCCC1 (stereo not given)
inactive: [3] 121 % of control | [5] 100 % of control | [6] 100 % of control and 104 % of control

NC(CNC(=O)C(Cl)Cl)C(=O)O (stereo not given)
inactive: [21] 93 % of control | [22] 105 % of control | [23] 100 % of control | dose: 50.0 mg/kg/injection, schedule: Q01DX009 (ip), vehicle: water 98 % of control | dose: 100.0 mg/kg/injection, schedule: Q01DX009 (ip), vehicle: water 89 % of control

C[n+]1c(/C=C/c2ccc(O)c3ncccc23)[se]c2ccccc21
inactive: dose: 0.38 mg/kg/injection, schedule: Q01DX009 (ip), vehicle: saline 102 % of control | dose: 0.75 mg/kg/injection, schedule: Q01DX009 (ip), vehicle: saline 109 % of control | dose: 1.5 mg/kg/injection, schedule: Q01DX009 (ip), vehicle: saline 106 % of control | dose: 3.0 mg/kg/injection, schedule: Q01DX009 (ip), vehicle: saline 109 % of control and 115 % of control | dose: 6.0 mg/kg/injection, schedule: Q01DX009 (ip), vehicle: saline 106 % of control and 124 % of control | dose: 12.0 mg/kg/injection, schedule: Q01DX009 (ip), vehicle: saline 115 % of control | dose: 24.0 mg/kg/injection, schedule: Q01DX009 (ip), vehicle: saline 122 % of control

Clc1c(Cl)c(CBr)c(Cl)c(CBr)c1Cl
inactive: dose: 1.56 mg/kg/injection, schedule: Q01DX009 (ip), vehicle: Klucel (hydroxypropylcellulose) (HPC) 100 % of control | [24] 105 % of control | [25] 102 % of control | dose: 12.5 mg/kg/injection, schedule: Q04DX003 (ip), vehicle: saline with Tween-80 86 % of control | dose: 25.0 mg/kg/injection, schedule: Q01DX009 (ip), vehicle: saline with Tween-80 95 % of control | dose: 25.0 mg/kg/injection, schedule: Q04DX003 (ip), vehicle: saline with Tween-80 92 % of control | [10] 97 % of control | [11] 95 % of control

CN(C)N=Nc1ccc(C(=O)O)cc1
inactive: [4] 113 % of control | [7] 119 % of control

Cc1cccc(C)c1NC(=O)c1cccc(C(=O)Nc2c(C)cccc2C)c1
inactive: [14] 100 % of control | [15] 94 % of control | [20] 91 % of control

CC(=O)OCC1OC(n2cnc3c(=S)nc(N)[nH]c32)C(OC(C)=O)C1OC(C)=O (stereo not given)
inactive: [1] 118 % of control | [2] 105 % of control | [4] 101 % of control

Cc1cc2nc(CO)[nH]c2cc1C
inactive: [14] 111 % of control | [17] 100 % of control | [18] 94 % of control | [19] 97 % of control

CCCCn1c(O)c(C=N)c(=O)n(CCCC)c1=O
inactive: dose: 3.12 mg/kg/injection, schedule: Q01DX009 (ip), vehicle: saline with Tween-80 109 % of control | dose: 6.25 mg/kg/injection, schedule: Q01DX009 (ip), vehicle: saline with Tween-80 97 % of control

Cc1c(Cl)cccc1NC(=O)c1ccc(Cl)cc1Cl
inactive: [17] 95 % of control | [18] 102 % of control | [19] 100 % of control

Cc1c(Cl)cccc1NC(=O)Oc1cc(Cl)c(Cl)cc1Cl
inactive: [24] 96 % of control | [25] 98 % of control | [26] 89 % of control and 98 % of control

O=C1c2ccccc2C(=O)N1C[P+](c1ccccc1)(c1ccccc1)c1ccccc1
inactive: [21] 117 % of control | [22] 112 % of control | [23] 123 % of control

COc1cc(/C=C/C(N)=O)cc(OC)c1OC
inactive: [4] 107 % of control | [8] 94 % of control | [9] 102 % of control

CC[CH2][Sn]([Cl])([Cl])[CH2]CC
inactive: dose: 0.5 mg/kg/injection, schedule: Q01DX009 (ip), vehicle: saline 93 % of control and 100 % of control | dose: 1.0 mg/kg/injection, schedule: Q01DX009 (ip), vehicle: saline 89 % of control and 100 % of control | dose: 2.0 mg/kg/injection, schedule: Q01DX009 (ip), vehicle: saline 93 % of control

CCc1ccccc1NC(=O)Nc1ccc(Cl)cc1
inactive: dose: 100.0 mg/kg/injection, schedule: Q01DX009 (ip), vehicle: gum acacia 101 % of control | dose: 200.0 mg/kg/injection, schedule: Q01DX009 (ip), vehicle: gum acacia 97 % of control | dose: 400.0 mg/kg/injection, schedule: Q01DX009 (ip), vehicle: gum acacia 93 % of control

C=CCNCC(O)c1ccccc1 (stereo not given)
inactive: [26] 103 % of control | [13] 106 % of control | [14] 109 % of control

CN(C)C(=O)c1cccc(COc2ccc(N3C(N)=NC(N)=NC3(C)C)cc2Cl)c1
inactive: dose: 1.56 mg/kg/injection, schedule: Q01DX009 (ip), vehicle: saline 120 % of control | dose: 3.13 mg/kg/injection, schedule: Q01DX009 (ip), vehicle: saline 120 % of control | [1] 117 % of control | [2] 104 % of control and 105 % of control | [4] 104 % of control and 117 % of control | [7] 100 % of control

CN(C)CCCN1Cc2ccccc2Cc2ccccc21
inactive: [1] 105 % of control | [2] 103 % of control | [4] 111 % of control | [7] 101 % of control | [8] 107 % of control

OCCNCCNc1ccnc2cc(Cl)ccc12
inactive: [2] 89 % of control | [4] 104 % of control | [7] 99 % of control | [8] 110 % of control

O=C1OC(c2ccc([N+](=O)[O-])cc2)=N/C1=C\c1ccc(Cl)cc1
inactive: [26] 102 % of control | [13] 86 % of control
